Patent US5952339A, “Pharmaceutical compositions and methods of using nicotinic antagonists for treating a condition or disorder characterized by alteration in normal neurotransmitter release” (priority 1998, dated 1999)
Where two headings read alike, the source gives them in different places.

Columns and labels:
[1] = target: T1, ganglia-type receptors (Rattus norvegicus, UniProt P04757+P12392); experiment: Determination of interaction with ganglion receptors; type: biochemical; conditions: percentage of the maximal activation induced by (S)-(-)-nicotine
T1 construct: endogenous in cells
Method: Determination of Interaction with Ganglion Receptors
(§1) The determination of the interaction of the compounds with ganglionic receptors was carried out in accordance with the techniques described in U.S. Pat. No. 5,597,919 to Dull et al. The maximal activation for individual compounds (Emax) was determined as a percentage of the maximal activation induced by (S)-(-)-nicotine. Reported Emax values represent the amount released relative to (S)-(-)-nicotine on a percentage basis.

[2] = target: T2, CNS nicotinic receptors (Rattus norvegicus, UniProt P09483+P12390); experiment: Determination of binding to relevant receptor sites
T2 construct: from tissue
Method: Determination of Binding to Relevant Receptor Sites
Binding of the compounds to relevant receptor sites was determined in accordance with the techniques described in U.S. Pat. No. 5,597,919 to Dull et al. Inhibition constants (Ki values), reported in nM, were calculated from the IC50 values using the method of Cheng et al., Biochem, Pharmacol. 22:3099 (1973).

[3] = target: T3, muscle-type receptors (Homo sapiens, UniProt P02708+P07510+Q07001); experiment: Determination of interaction with muscle receptors; type: biochemical; conditions: percentage of the maximal activation induced by (S)-(-)-nicotine
T3 construct: endogenous in cells
Method: Determination of Interaction with Muscle Receptors
as §1, with “muscle” for “ganglionic”

[4] = test system: dopamine release; experiment: Determination of receptor activation/inhibition: dopamine release; type: biochemical; conditions: for Emax (dopamine release): amount released relative to (S)-(-)-nicotine or TMA
Method: Determination of Receptor Activation/Inhibition and Dopamine Release
Dopamine release was measured using the techniques described in U.S. Pat. No. 5,597,919 to Dull et al. Release is expressed as a percentage of release obtained with a concentration of (S)-(-)-nicotine resulting in maximal effects. Reported EC50 values are expressed in nM, and Emax values represent the amount released relative to (S)-(-)-nicotine or tetramethylammonium ion (TMA), on a percentage basis.
(§2) Reported IC50 values are expressed in nM and represent the concentration resulting in 50% inhibition of agonist induced receptor activation. Emax values represent the amount released relative to (S)-(-)-nicotine on a percentage basis.

[5] = target: T2, CNS nicotinic receptors; experiment: Isotopic rubidium ion release; type: biochemical; conditions: for Emax: read-out: Emax (rubidium ion release)
Method: Isotopic rubidium release was measured using the techniques described in Bencherif et al., JPET, 279: 1413-1421 (1996). Reported EC50 values are expressed in nM, and Emax values represent the amount of rubidium ion released relative to 300 uM tetranmethylammonium ion, on a percentage basis.
as §2

[6] = calculated from IC50 values using the method of Cheng et al., read-out: Ki
[7] = read-out: EC50 (rubidium ion release)

T3 sequence (P02708 21-457): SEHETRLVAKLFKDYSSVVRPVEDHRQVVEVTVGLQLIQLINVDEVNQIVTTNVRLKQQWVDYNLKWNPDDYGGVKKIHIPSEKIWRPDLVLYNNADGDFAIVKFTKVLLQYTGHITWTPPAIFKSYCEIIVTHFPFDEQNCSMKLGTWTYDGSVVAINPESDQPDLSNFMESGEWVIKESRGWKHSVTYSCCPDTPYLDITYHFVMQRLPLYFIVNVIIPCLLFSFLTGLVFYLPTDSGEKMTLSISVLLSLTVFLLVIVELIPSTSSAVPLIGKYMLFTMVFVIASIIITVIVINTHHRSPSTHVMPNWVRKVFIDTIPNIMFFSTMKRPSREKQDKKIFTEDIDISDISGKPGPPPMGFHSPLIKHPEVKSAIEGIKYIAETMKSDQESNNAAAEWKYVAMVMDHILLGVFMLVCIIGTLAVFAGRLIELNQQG
T3 sequence (P11230 24-501, further chain): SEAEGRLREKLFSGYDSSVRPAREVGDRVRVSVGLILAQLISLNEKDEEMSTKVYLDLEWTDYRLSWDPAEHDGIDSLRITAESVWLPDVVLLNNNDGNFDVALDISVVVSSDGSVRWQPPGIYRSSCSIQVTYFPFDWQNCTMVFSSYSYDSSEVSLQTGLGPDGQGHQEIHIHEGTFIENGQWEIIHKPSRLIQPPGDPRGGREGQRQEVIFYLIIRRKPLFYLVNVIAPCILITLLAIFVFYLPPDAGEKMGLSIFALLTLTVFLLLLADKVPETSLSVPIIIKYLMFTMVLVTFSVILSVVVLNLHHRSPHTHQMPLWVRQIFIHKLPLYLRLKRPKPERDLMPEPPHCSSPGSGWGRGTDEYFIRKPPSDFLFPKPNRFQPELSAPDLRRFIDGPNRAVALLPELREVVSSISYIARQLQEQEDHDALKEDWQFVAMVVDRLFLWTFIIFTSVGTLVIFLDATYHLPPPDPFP
T3 sequence (P07510 23-517): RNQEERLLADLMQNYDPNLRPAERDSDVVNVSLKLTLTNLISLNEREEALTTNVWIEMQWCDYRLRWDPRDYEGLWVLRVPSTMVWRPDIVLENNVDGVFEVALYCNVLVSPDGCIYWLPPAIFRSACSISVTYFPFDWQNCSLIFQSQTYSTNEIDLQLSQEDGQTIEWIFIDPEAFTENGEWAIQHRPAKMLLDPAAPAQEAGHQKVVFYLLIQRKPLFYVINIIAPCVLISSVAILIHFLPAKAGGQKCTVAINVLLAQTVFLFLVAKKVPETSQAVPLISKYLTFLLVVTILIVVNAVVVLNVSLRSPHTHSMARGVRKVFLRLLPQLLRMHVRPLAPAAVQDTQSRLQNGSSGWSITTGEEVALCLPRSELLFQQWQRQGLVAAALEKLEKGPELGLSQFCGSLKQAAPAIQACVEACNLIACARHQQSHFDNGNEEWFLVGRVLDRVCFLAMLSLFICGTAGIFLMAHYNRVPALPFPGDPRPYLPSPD
T3 sequence (Q07001 22-517): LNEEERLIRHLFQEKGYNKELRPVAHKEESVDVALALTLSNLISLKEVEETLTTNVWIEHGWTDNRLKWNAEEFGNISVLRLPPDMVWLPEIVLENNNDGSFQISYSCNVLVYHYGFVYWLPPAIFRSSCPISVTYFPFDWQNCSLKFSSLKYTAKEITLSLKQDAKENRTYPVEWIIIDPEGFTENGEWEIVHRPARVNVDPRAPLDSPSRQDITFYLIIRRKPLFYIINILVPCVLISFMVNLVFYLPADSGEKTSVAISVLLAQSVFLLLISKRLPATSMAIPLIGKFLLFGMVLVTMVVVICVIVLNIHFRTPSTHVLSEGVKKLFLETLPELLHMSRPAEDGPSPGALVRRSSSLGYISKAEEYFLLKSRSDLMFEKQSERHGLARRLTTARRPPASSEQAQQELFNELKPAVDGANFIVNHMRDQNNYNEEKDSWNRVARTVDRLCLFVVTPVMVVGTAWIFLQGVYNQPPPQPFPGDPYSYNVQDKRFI
T1 sequence (P04757 26-499): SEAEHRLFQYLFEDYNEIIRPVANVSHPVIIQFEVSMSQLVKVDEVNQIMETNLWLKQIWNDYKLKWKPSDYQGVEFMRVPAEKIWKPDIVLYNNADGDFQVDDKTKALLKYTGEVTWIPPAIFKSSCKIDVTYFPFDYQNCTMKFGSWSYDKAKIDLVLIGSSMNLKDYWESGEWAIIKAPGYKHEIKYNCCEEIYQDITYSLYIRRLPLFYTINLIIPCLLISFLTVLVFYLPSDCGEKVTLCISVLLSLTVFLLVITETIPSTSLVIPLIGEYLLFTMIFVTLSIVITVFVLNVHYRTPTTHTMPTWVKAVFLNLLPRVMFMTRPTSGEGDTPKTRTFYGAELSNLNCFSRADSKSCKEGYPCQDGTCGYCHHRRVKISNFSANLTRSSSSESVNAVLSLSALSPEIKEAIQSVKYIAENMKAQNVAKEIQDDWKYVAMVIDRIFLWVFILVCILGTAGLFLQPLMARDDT
T1 sequence (P12392 21-495): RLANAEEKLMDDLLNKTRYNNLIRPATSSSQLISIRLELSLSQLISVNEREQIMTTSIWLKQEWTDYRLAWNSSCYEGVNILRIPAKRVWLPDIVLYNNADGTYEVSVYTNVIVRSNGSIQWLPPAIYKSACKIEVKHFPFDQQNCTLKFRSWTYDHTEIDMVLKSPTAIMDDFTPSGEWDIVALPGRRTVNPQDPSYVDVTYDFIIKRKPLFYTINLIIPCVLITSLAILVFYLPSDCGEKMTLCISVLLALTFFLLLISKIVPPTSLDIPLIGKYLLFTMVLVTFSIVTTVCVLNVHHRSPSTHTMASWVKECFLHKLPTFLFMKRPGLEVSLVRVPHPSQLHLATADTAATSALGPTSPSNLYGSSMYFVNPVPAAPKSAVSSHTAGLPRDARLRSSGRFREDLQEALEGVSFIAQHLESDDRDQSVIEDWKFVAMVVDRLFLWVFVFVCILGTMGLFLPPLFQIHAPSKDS
T2 sequence (P09483 31-630): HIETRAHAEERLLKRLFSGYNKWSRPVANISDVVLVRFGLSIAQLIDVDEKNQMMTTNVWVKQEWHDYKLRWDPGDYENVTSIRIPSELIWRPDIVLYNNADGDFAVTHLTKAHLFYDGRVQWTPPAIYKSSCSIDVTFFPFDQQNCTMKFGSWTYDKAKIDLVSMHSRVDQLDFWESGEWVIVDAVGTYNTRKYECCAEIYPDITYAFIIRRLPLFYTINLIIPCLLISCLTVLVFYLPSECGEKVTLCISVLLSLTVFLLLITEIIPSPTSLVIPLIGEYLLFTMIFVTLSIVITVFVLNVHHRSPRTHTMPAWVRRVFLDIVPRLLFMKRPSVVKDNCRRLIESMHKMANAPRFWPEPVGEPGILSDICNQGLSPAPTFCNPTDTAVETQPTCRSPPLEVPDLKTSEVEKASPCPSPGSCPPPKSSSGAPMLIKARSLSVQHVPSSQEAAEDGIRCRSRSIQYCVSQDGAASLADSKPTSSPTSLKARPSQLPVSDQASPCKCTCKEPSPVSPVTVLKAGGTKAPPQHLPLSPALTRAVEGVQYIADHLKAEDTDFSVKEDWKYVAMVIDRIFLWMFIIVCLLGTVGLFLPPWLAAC
T2 sequence (P12390 25-500): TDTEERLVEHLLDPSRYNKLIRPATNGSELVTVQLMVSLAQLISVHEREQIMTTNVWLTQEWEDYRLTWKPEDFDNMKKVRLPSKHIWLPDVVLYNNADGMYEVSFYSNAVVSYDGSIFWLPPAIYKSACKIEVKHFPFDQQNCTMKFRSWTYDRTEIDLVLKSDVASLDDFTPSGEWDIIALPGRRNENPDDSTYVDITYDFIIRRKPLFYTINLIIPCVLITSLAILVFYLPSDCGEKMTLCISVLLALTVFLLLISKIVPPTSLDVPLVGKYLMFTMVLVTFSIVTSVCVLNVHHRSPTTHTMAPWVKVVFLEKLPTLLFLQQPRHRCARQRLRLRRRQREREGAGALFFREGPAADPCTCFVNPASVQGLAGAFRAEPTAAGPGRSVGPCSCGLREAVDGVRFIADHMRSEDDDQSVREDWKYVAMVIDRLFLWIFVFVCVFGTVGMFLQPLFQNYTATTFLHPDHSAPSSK

| SMILES | Emax [1] | Ki [2, 6] | Emax [3] | Emax (dopamine release) [4] | Ki [2] | EC50 [5, 7] | Emax [5] | EC50 [5] | IC50 [5] | IC50 ([4]; 50% inhibition of agonist induced receptor activation) |
| --- | --- | --- | --- | --- | --- | --- | --- | --- | --- | --- |
| c1cncc(C2C3CC4CC(C3)CN2C4)c1 (stereo not drawn) [Sample No. 1, 1-aza-2-(3-pyridyl)-tricyclo[3.3.1.1^3,7]decane] | 27% | 15 nM | 21% | 0% |  |  |  |  |  |  |
| Brc1cncc(C2C3CC4CC(C3)CN2C4)c1 (stereo not drawn) [Sample No. 2, 1-aza-2-[5-bromo(3-pyridyl)]tricyclo[3.3.1.1^3,7]decane] | 50% |  | 32% | 0% | 2 nM | > 100000 nM | 0% |  |  |  |
| Cl.Cl.Cl.Nc1cncc(C2C3CC4CC(C3)CN2C4)c1 (stereo not drawn) [Sample No. 3, 1-aza-2-[5-amino-(3-pyridyl)]tricyclo[3.3.1.1^3,7]decane trihydrochloride] | 17% | 44 nM | 75% | 0% |  |  | 0% | > 100000 nM |  |  |
| CCOc1cncc(C2C3CC4CC(C3)CN2C4)c1 (stereo not drawn) [Sample No. 4, 1-aza-2-[5-ethoxy-(3-pyridyl)]-tricyclo-[3.3.1.1^3,7]decane] | 0% |  | 22% | 0% | 1 nM | > 100000 nM | 0% |  | 630 nM | 846 nM |
| CC(C)Oc1cncc(C2C3CC4CC(C3)CN2C4)c1 (stereo not drawn) [Sample No. 5, 1-aza-2-[5-isopropoxy-(3-pyridyl)]tricyclo[3.3.1.1^3,7]decane] | 7% |  | 114% | 0% | 24 nM | > 100000 nM | 0% |  |  |  |
